Data from US4857650A, “Novel renin inhibitory amino acid derivatives” (Kissei Pharmaceutical Co., Ltd., priority 1985, dated 1989).

How the values were obtained:
[1] = molecular target: T1, renin in human high renin plasma (Homo sapiens, UniProt P00797); assay: Renin inhibitory effect in a human high renin plasma; format: biochemical; details: pH 7.4, 30 minutes at 37° C., read-out: IC50 (molar concentration)
T1 construct: 500 μl of human high renin plasma; from tissue; host or cells: human high renin plasma
T1 sequence (P00797 67-406): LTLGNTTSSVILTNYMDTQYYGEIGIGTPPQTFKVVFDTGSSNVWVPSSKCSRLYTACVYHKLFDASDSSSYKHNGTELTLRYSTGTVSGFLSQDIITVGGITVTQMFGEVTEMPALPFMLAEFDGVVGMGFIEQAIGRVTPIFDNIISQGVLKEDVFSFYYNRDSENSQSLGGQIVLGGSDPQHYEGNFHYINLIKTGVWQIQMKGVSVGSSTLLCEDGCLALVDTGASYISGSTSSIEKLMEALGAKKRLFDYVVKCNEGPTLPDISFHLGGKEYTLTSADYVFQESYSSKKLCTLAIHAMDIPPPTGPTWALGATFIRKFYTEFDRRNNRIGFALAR
Description: Renin inhibitory effect in a human high renin plasma A mixture of 350 μl of a 0.5M phosphate buffer containing 14 mM EDTA 2Na and a 0.3% neomycin sulfate, which was adjusted to the pH of 7.4, 50 μl of a 20 mM an aqueous solution of […] as an angiotensin converting enzyme inhibitor and 100 μl of dimethyl sulfoxide solution containing an amino acid compound of the present invention was added to 500 μl of human high renin plasma. […] was incubated for 30 minutes at 37° C. in a water bath. A 200 μl sample was withdrawn from the incubated mixture, chilled immediately in an ice bath, and the amount of angiotensin I produced was determined by radioimmunoassay, and remaining of the mixture (200 μ[…] 4° C. in an ice bath. The amount of angiotensin I produced in the incubated mixture at 4° C. in an ice bath was determined by radioimmunoassay. As a control, the same procedure as above was carried out by using 100 μl of dimethyl sulfoxide alone in place of the 100 μl of dimethyl sulfoxide solution containing an amino acid compound of the present invention. The inhibitory effect was calculated by the following equation. [formula] The molar concentration which produced 50% inhibition (IC50) was calculated from the inhibition value obtained, and the results are shown below.

human renin = molecular target: T2, human renin (Homo sapiens, UniProt P00797); assay: Human renin-sheep renin substrate reaction system in vitro; format: biochemical; details: pH 7.4, 15 minutes at 37° C., read-out: IC50 (molar concentration)
T2 sequence (P00797 67-406): T1 sequence (P00797 67-406)
Description: Human resin-sheep resin substrate reaction system in vitro To a mixture containing 200 μl of a 125 mM pyrophosphate buffer (pH 7.4), 25 μl of a 20 mM aqueous solution of […] as an angiotensin converting enzyme inhibitor, 50 μl of semipurified sheep renin substrate ([…]), 50 μl of dimethyl sulfoxide solution of an amino acid derivative of the present invention (or 50 μl of dimethyl sulfoxide as a control) and 150 μl of deionized water was added 25 μl of purified human renin (20-30 ng angiotensin I/ml/hr). The mixture was incubated for 15 minutes on a water bath at 37° C., and the reaction mixture was allowed to stand for 5 minutes on a water bath at 100° C. to stop the reaction. After cooling, 200 μl of the solution were taken up and the amount of angiotensin I produced by the addition of renin was determined by radioimmunoassay. The inhibitory effect was calculated by the following equation. [formula] The molar concentration which produced 50% inhibition (IC50) was calculated from the inhibition value obtained, and the results are shown below.

Structure (SMILES) | IC50 [1] | IC50 (human renin)
COC(=O)C[C@@H](C(=O)OC)N(C)C(=O)CC(Cc1cccc2ccccc12)C(=O)N[C@@H](Cc1c[nH]cn1)C(=O)N[C@@H](CC(C)C)C(O)C(=O)OC(C)C (stereo partly drawn) [Isopropyl(2RS,3S)-3-{N-{2-(1-naphthylmethyl)-3-[N-methyl-N-(1S,2-bismethoxycarbonylethyl)carbamoyl]-propionyl}-L-histidyl}amino-2-hydroxy-5-methylhexanoate] | 190 nM | 81 nM
CC(C)C[C@H](NC(=O)[C@H](Cc1c[nH]cn1)NC(=O)C(CC(=O)N[C@@H](C)C(N)=O)Cc1cccc2ccccc12)C(O)C(=O)OC(C)C (stereo partly drawn) [Isopropyl(2RS,3S)-3-{N-{2-(1-naphthylmethyl)-3-[N-(1S-carbamoylethyl)carbamoyl]propionyl}-L-histidyl}amino-2-hydroxy-5-methylhexanoate] | 240 nM | 440 nM
CC(C)C[C@H](NC(=O)[C@H](Cc1c[nH]cn1)NC(=O)C(CC(=O)N1CCC[C@H]1CO)Cc1cccc2ccccc12)C(O)C(=O)OC(C)C (stereo partly drawn) [Isopropyl(2RS,3S)-3-{N-[2-(1-naphthylmethyl)-3-(2S-hydroxymethylpyrrolidinocarbonyl)propionyl]-L-histidyl}amino-2-hydroxy-5-methylhexanoate] | 140 nM | 23 nM
CC(C)C[C@H](NC(=O)[C@H](Cc1c[nH]cn1)NC(=O)C(CC(N)=O)Cc1cccc2ccccc12)C(O)C(=O)OC(C)C (mixture of isomers) [Isopropyl (2RS,3S)-3-{N-[3-(carbamoyl)-2-(1-naphthylmethyl)propionyl]-L-histidyl}amino-2-hydroxy-5-methylhexanoate] | 490 nM | 520 nM
COC(=O)[C@@H]1CCCN1C(=O)CC(Cc1cccc2ccccc12)C(=O)N[C@@H](Cc1c[nH]cn1)C(=O)N[C@@H](CC(C)C)C(O)C(=O)NCCC(C)C (stereo partly drawn) [(2RS,3S)-3-{N-[2-(1-Naphthylmethyl)-3-(2S-methoxycarbonylpyrrolidinocarbonyl)propionyl]-L-histidyl}amino-2-hydroxy-5-methylhexanoylisoamylamide] | 290 nM | 84 nM
COC(=O)[C@@H]1CC(O)CN1C(=O)CC(Cc1cccc2ccccc12)C(=O)N[C@@H](Cc1c[nH]cn1)C(=O)N[C@@H](CC(C)C)C(O)C(=O)OC(C)C (stereo partly drawn) [Isopropyl(2RS,3S)-3-{N-[2-(1-naphthylmethyl)-3-(4-hydroxy-2S-methoxycarbonylpyrrolidinocarbonyl)-propionyl]-L-histidyl}amino-2-hydroxy-5-methylhexanoate] | 190 nM | 41 nM
CNC(=O)CNC(=O)CC(Cc1cccc2ccccc12)C(=O)N[C@@H](Cc1c[nH]cn1)C(=O)N[C@@H](CC(C)C)C(O)C(=O)OC(C)C (mixture of isomers) [Isopropyl(2RS,3S)-3-{N-[2-(1-naphthylmethyl)-3-(N-methylcarbamoylmethylcarbamoyl)propionyl]-L-histidyl}amino-2-hydroxy-5-methylhexanoate] | 290 nM | 620 nM
COC(=O)CNC(=O)CC(Cc1cccc2ccccc12)C(=O)N[C@@H](Cc1c[nH]cn1)C(=O)N[C@@H](CC(C)C)C(O)C(=O)OC(C)C (mixture of isomers) [Isopropyl(2RS,3S)-3-{N-[2-(1-naphthylmethyl)-3-(N-methoxycarbonylmethylcarbamoyl)propionyl]-L-histidyl}amino-2-hydroxy-5-methylhexanoate] | 76 nM | 240 nM
COC(=O)CC(Cc1cccc2ccccc12)C(=O)N[C@@H](Cc1c[nH]cn1)C(=O)N[C@@H](CC(C)C)C(O)C(=O)NCCC(C)C (mixture of isomers) [(2RS,3S)-3-[3-Methoxycarbonyl-2-(1-naphthylmethyl)propionyl-L-histidyl]amino-2-hydroxy-5-methylhexanoylisoamylamide] | 690 nM | 220 nM
COC(=O)CN(C)C(=O)CC(Cc1cccc2ccccc12)C(=O)N[C@@H](Cc1c[nH]cn1)C(=O)N[C@@H](CC(C)C)C(O)C(=O)NCCC(C)C (mixture of isomers) [(2RS,3S)-3-{N-[2-(1-Naphthylmethyl)-3-(N-methyl-N-methoxycarbonylmethylcarbamoyl)propionyl]-L-histidyl}amino-2-hydroxy-5-methylhexanoylisoamylamide] | 339 nM | 23 nM
COC(=O)[C@H](C)N(C)C(=O)CC(Cc1cccc2ccccc12)C(=O)N[C@@H](Cc1c[nH]cn1)C(=O)N[C@@H](CC(C)C)C(O)C(=O)OC(C)C (stereo partly drawn) [Isopropyl(2RS,3S)-3-{N-{2-(1-naphthylmethyl)-3-[N-methyl-N-(1S-methoxycarbonylethyl)carbamoyl]propionyl}-L-histidyl}amino-2-hydroxy-5-methylhexanoate] | 16 nM | 33 nM
CC(C)C[C@H](NC(=O)[C@H](Cc1c[nH]cn1)NC(=O)C(CC(=O)N(C)CCO)Cc1cccc2ccccc12)C(O)C(=O)OC(C)C (mixture of isomers) [Isopropyl(2RS,3S)-3-{N-{2-(1-naphthylmethyl)-3-[N-methyl-N-(2-hydroxyethyl)carbamoyl]propionyl}-L-histidyl}amino-2-hydroxy-5-methylhexanoate] | 28 nM | 41 nM

Second part, the compound after the results:

IC50 [1] | IC50 (human renin) | Structure (SMILES)
53 nM | 40 nM | COC(=O)C(O)[C@H](CC(C)C)NC(=O)[C@H](Cc1c[nH]cn1)NC(=O)C(CC(=O)N1CCC[C@H]1C(=O)OC)Cc1cccc2ccccc12 (stereo partly drawn) [Methyl(2RS,3S)-3-{N-[2-(1-naphthylmethyl)-3-(2S-methoxycarbonylpyrrolidinocarbonyl)propionyl]-L-histidyl}amino-2-hydroxy-5-methylhexanoate]
14 nM | 12 nM | COC(=O)CN(C)C(=O)CC(Cc1cccc2ccccc12)C(=O)N[C@@H](Cc1c[nH]cn1)C(=O)N[C@@H](CC(C)C)C(O)C(=O)OC (mixture of isomers) [Methyl(2RS,3S)-3-{N-[2-(1-naphthylmethyl)-3-(N-methyl-N-methoxycarbonylmethylcarbamoyl)propionyl]-L-histidyl}amino-2-hydroxy-5-methylhexanoate]
60 nM | 37 nM | COC(=O)CC(Cc1cccc2ccccc12)C(=O)N[C@@H](Cc1c[nH]cn1)C(=O)N[C@@H](CC(C)C)[C@@H](O)CC(=O)NCCC(C)C (stereo partly drawn) [N-[3-(methoxycarbonyl)-2-(1-naphthylmethyl)propionyl]-L-histidyl-statylisoamylamide]
220 nM | 120 nM | COC(=O)[C@@H]1CCCN1C(=O)CC(Cc1cccc2ccccc12)C(=O)N[C@@H](Cc1c[nH]cn1)C(=O)N[C@@H](CC(C)C)[C@@H](O)CC(=O)NCCC(C)C (stereo partly drawn) [N-[2-(1-Naphthylmethyl)-3-(2S-methoxycarbonylpyrrolidinocarbonyl)propionyl]-L-histidyl-statylisoamylamide]
15 nM | 28 nM | COC(=O)[C@H]1CCCN1C(=O)CC(Cc1cccc2ccccc12)C(=O)N[C@@H](Cc1c[nH]cn1)C(=O)N[C@@H](CC(C)C)C(O)C(=O)OC(C)C (stereo partly drawn) [Isopyl(2RS,3S)-3-{N-[2-(1-naphthylmethyl)-3-(2R-methoxycarbonylpyrrolidinocarbonyl)propionyl]-L-histidyl}amino-2-hydroxy-5-methylhexanoate]
35 nM | 35 nM | COC(=O)CN(C)C(=O)CC(Cc1cccc2ccccc12)C(=O)N[C@@H](Cc1c[nH]cn1)C(=O)N[C@@H](CC(C)C)[C@@H](O)CC(=O)NCCC(C)C (stereo partly drawn) [N-[2-(1-Naphthylmethyl)-3-(N-methyl-N-methoxycarbonylmethylcarbamoyl)propionyl]-L-histidyl-statylisoamylamide]
